Results as given in patent US20240279711A1, “MARKER FOR DNA DAMAGE IN PROXIMITY OF TRANSCRIBED GENOMIC LOCI AND METHODS FOR IDENTIFYING AND/OR QUANTIFYING THESE DNA DAMAGES” (FONDAZIONE ISTITUTO ITALIANO DI TECNOLOGIA, priority 2021, published 2024).

Experiments:
Format in all cases: cell-based
[1] = tested on: mCherry-CDK12 recruitment at damaged DNA sites in U2OS cells; test: Laser micro-irradiation, time-lapse microscopy of mCherry-CDK12 recruitment to damaged DNA sites; conditions: for recruitment of mCherry-CDK12 at laser-damaged areas: 3 hours before laser micro-irradiation; for localisation of CDK12 at laser-damaged sites: 2 hours before laser microirradiation; for localisation of CDK12 at laser-damaged DNA sites: 1 hour before laser microirradiation
Procedure: FIGS. 6A and 6B show how the recruitment of CDK12 to DDR sites is transcription-dependent. U2OS cells, transfected with mCherry-CDK12 plasmid, were first treated with DRB (100 uM), Triptolide (1 uM) or DMSO (mock) for 3 hours and then micro-irradiated by laser. Selected regions within the nucleus were micro-irradiated with 10 iterations of a laser at 405 nm with 100% power. The cells were subjected to quantitative analysis using time-lapse microscopy.
U2OS cells were transfected with the mCherry-CDK12 encoding plasmid and treated with THZ531 (100 nM) or DMSO for 24 hours. The cells were previously treated with BrdU for 24 hours to sensitise the DNA to breaks by laser. To generate localised DNA damage, selected regions within the nucleus were micro-irradiated with 10 iterations of a laser at 405 nm with 100% power. The cells were then subjected to time-lapse microscopic analysis. For each condition, at least 30 cells were considered. FIG. 9A reports representative images used for the analysis shown in the graph of FIG. 9B.
U2OS cells were transfected with mCherry-CDK12 plasmid and pre-treated with KU-55933 (ATMi; 10 μM), VE-821 (ATRi; 10 µM) or DMSO (mock) for 2 hours prior to laser microirradiation. To generate localised DNA damage, selected regions within the nucleus were micro-irradiated with 10 iterations of a laser at 405 nm with 100% power. The cells were subjected to quantitative analysis by time-lapse microscopy. FIG. 10A: representative images used for the analysis shown in the graph in FIG. 10B.
FIGS. 11A and 11B show how CDK12 recruitment to DDR sites depends on PARP1 activity. U2OS cells were transfected with mCherry-CDK12 plasmid and pre-treated with Olaparib (1 µM), Veliparib (10 μM) or DMSO (mock) for 1 hour before laser microirradiation. To generate localised DNA damage, selected regions within the nucleus were micro-irradiated with 10 iterations of a laser at 405 nm with 100% power. The cells were then subjected to quantitative analysis by time-lapse microscopy.
U2OS cells were transfected with a vector encoding mCherry-CDK12. Cells were micro-irradiated with a laser beam to induce DNA breaks confined to appropriately selected nuclear areas.
In order to inhibit RNA-pol2, the cells were pre-treated with either (i) triptolide (a TFIIH inhibitor that blocks the start of transcriptional) or (ii) DRB (5,6-dichlorobenzimidazole riboside, a DSIF inhibitor that prevents transcriptional elongation).
U2OS cells were transfected with a vector encoding for mCherry-CDK12. Cells were micro-irradiated with a laser beam to induce DNA breaks confined to selected nuclear areas. In order to inhibit CDK12, the cells were pre-treated with THZ531, a covalent inhibitor of CDK12.
U2OS cells were transfected with a vector encoding for mCherry-CDK12. The cells were micro-irradiated with a laser beam to induce DNA breaks in selected nuclear areas. To inhibit the DDR response, the cells were pre-treated with an ATM inhibitor (KU-55933) or an ATR inhibitor (VE-821).
U2OS cells, transfected with a vector encoding for mCherry-CDK12, were micro-irradiated with a laser beam to induce DNA breaks confined to selected nuclear areas. To inhibit PARP1, the cells were pre-treated with Olaparib and Veliparib.

[2] = tested on: mCherry-CDK12 recruitment to programmed DSBs in U2OS-TRE-I-Sce1 cells; test: CDK12 recruitment to programmed Sce-1 DSB, co-localisation with γH2A.X; conditions: U2OS-TRE-I-SceI cells, doxycycline, 3 hours
Procedure: FIGS. 7A and 7B show how CDK12 recruitment at a DNA-damaged locus is transcriptionally dependent. U2OS-TRE-I-SceI cells were transfected with plasmid vectors encoding mCherry-CDK12, p-rtTA, YFP-MS2 or I-Sce1. The cells were treated with doxycycline, which is required for the induction of the rtTA transcription factor that activates the transcription of the MS2 reporter gene. RNA-pol2 activity was inhibited by DRB (100 uM) or TRIPTOLIDE (TPL, 1 uM) for 3 hours. The cells were fixed with 4% PFA for 15 minutes and immunostained for γH2A. X. The table in FIG. 7B reports the percentage of cells showing co-localisation between CDK12 and γH2A. X (mean of two experiments).
U2OS-TRE-I-Sce-1 cells were transfected with plasmids encoding (i) YFP-MS2 (a chimeric gene produced by the MS2 CDNA fused with the YFP cDNA), (ii) mCherry-CDK12 (a chimeric fusion of mCherry and CDK12), (iii) rtTA (a doxycycline-activated transcription factor) and (iv) the restriction enzyme Sce-1. Transcription was activated by the addition of doxycycline and monitored by detecting subcellular positive nuclear foci for YFP signal. Sce-1-induced DSBs were visualised by immunofluorescence staining specific for the phosphorylated form of histone H2Ax (γH2A. X), a marker for DNA break detection and DNA damage response (DDR) signalling pathway activation. […]

[3] = tested on: mCherry-CDK12 recruitment at endogenous DDR sites in RPE-iCUT cells; test: CDK12 recruitment to CRISPR-Cas9 induced DSBs at endogenous loci; conditions: DSBs 1 kb and 2 kb upstream of TSS of POLRIB, IFRD2, MCM2, DRB 100 uM, 3 hours before harvesting
Procedure: RPE iCUT cells, stably expressing inducible CRISPER-Cas9, were transfected with mCherry-CDK12. Cas9 was activated by doxycycline and SHIELD-1 for 16 hours. […] 3 hours before harvesting, the cells were treated with DRB (100 uM). The bar graph reports the percentage of cells showing co-localisation of CDK12 and γH2A. X in the indicated genomic regions (mean of two independent experiments, 40 cells were considered for each region).
For the site-specific induction of a DSB at selected endogenous genomic loci, we used RPE-iCUT cells: immortalised retinal epithelial cells engineered for CRISPR-CAS9 expression and conditional activation. These cells were transfected with mCherry-CDK12 and a set of sgRNAs (Alt-R-gRNA) designed to induce DBS in three expressed genes (MCM2, IFRD2 and POLRIB), in two regions upstream of their site of transcriptional onset (TSS), or designed to induce DSB in two genomic regions distal to transcribed loci. The induction of DSBs by CRISPR-Cas9 was assessed by immunofluorescence of γH2A. X, while the recruitment of CDK12 to DNA-damaged sites was assessed by microscopy analysis of mCherry signals. […] As a control, DSBs induced in regions distal to transcribed loci show low levels of CDK12 recruitment (close to the background signal), which are not altered by RNA-pol2 inhibitors (FIG. 8).

[4] = tested on: MS2 reporter transcription in U2OS-TRE-I-Sce1 cells; test: MS2 reporter gene transcription at damaged locus (YFP-MS2 / pCherry-tTA-ER co-localisation); conditions: +SceI, OHT, THZ531 for 24 h
Source text: The fixed cells were processed to detect the γH2A. X signal by immunofluorescence. […] U2OS-TRE-I-Sce1 cells were transfected with plasmids encoding (i) YFP-MS2 (a chimeric gene produced from MS2 cDNA fused with YFP cDNA), (ii) mCherry-tTA-ER and (iii) the restriction enzyme Sce-1. Transcription was activated by addition of OHT and monitored by detecting positive nuclear foci for YFP signal. Sce1-induced DSBs were visualised by immunofluorescence staining of the phosphorylated form of the histone H2Ax (γH2A. X), a marker for DNA break detection and DNA damage response (DDR) signalling pathway activation.

In the case of `OC[C@H]1O[C@@H](n2cnc3cc(Cl)c(Cl)cc32)[C@H](O)[C@@H]1O` [DRB, 5,6-dichlorobenzimidazole riboside], the “recruitment of mCherry-CDK12 at laser-damaged areas” value ([1]; DRB 100 uM) is reported as “prevents the recruitment of mCherry-CDK12 at damaged areas”, the “recruitment of mCherry-CDK12 at Sce-1 damaged locus” value ([2]; DRB 100 uM) is reported as “prevents the recruitment of mCherry-CDK12 at damaged areas” and the “CDK12 recruitment to DDR foci proximal to promoters” value [3] is reported as “reduced its recruitment to damaged foci”.
For `O=c1cc(-c2cccc3c2Sc2ccccc2S3)oc(N2CCOCC2)c1` [KU-55933], the “localisation of CDK12 at laser-damaged sites” value ([1]; KU-55933 (ATMi) 10 μM) was “Neither of the two inhibitor affected the localisation of CDK12 at the damaged sites”.
`O=C(c1cc(Cc2n[nH]c(=O)c3ccccc23)ccc1F)N1CCN(C(=O)C2CC2)CC1` [Olaparib] was tested, and the “localisation of CDK12 at laser-damaged DNA sites” value ([1]; Olaparib 1 µM) was “inhibited the localisation of CDK12 at damaged DNA sites”.
With `CN(C)C/C=C/C(=O)Nc1ccc(C(=O)N2CCC[C@@H](Nc3ncc(Cl)c(-c4c[nH]c5ccccc45)n3)C2)cc1` [THZ531] the “recruitment of CDK12 at DDR foci (laser)” value ([1]; THZ531 100 nM, 24 hours, BrdU pre-sensitised) was “did not affect the recruitment of CDK12 at DDR foci” and the “MS2 reporter expression at damaged locus” value [4] was “reactivated MS2 reporter expression”.
For `CS(=O)(=O)c1ccc(-c2cnc(N)c(C(=O)Nc3ccccc3)n2)cc1` [VE-821], the “localisation of CDK12 at laser-damaged sites” value ([1]; VE-821 (ATRi) 10 µM) was “Neither of the two inhibitor affected the localisation of CDK12 at the damaged sites”.
With `C[C@]1(c2nc3c(C(N)=O)cccc3[nH]2)CCCN1` [Veliparib] the “localisation of CDK12 at laser-damaged DNA sites” value ([1]; Veliparib 10 μM) was “inhibited the localisation of CDK12 at damaged DNA sites”.
For `CC(C)[C@]12O[C@H]1[C@@H]1O[C@]13[C@]1(O[C@H]1C[C@H]1C4=C(CC[C@@]13C)C(=O)OC4)[C@@H]2O` [triptolide], the “recruitment of mCherry-CDK12 at laser-damaged areas” value ([1]; Triptolide 1 uM) was “prevents the recruitment of mCherry-CDK12 at damaged areas” and the “recruitment of mCherry-CDK12 at Sce-1 damaged locus” value ([2]; TRIPTOLIDE 1 uM) was “prevents the recruitment of mCherry-CDK12 at damaged areas”.
